Measurements published in the supplement of paper PMC12137928.
Where a name gives a salt, the structure may show the parent alone.

Test system: HCT116
Conditions: 72 h
Outline: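 HCT116 cells were seeded at 250 per well in 1536-well plates with 5 h allowed for attachment. CellTiter-Glo luminescence was normalized against vehicle (0%) and positive control (-100%) before pattern correction. The IC50 and maximal efficacy figures derive from four-parameter Hill fits.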

SMILES | IC50 cell viability (ICRF193 0 nM) [µM] | IC50 cell viability (ICRF193 200 nM) [µM]
CCCN1C[C@H](C)[C@@H](O)[C@](C)(O)[C@@H](CC)OC(=O)[C@H](C)[C@@H](O[C@H]2C[C@@](C)(OC)[C@@H](O)[C@H](C)O2)[C@H](C)[C@@H](O[C@@H]2O[C@H](C)C[C@H](N(C)C)[C@H]2O)[C@](C)(O)C[C@H]1C [Gamithromycin] | > 45.8 | > 45.8
CCCCC/C=C\C/C=C\C/C=C\CCCCC(=O)O [Gamolenic acid] | > 45.8 | > 45.8
Nc1nc2c(ncn2COC(CO)CO)c(=O)[nH]1 [Ganciclovir] | > 45.8 | > 45.8
C[C@H]1NCc2cc(-c3ccc4c(=O)c(C(=O)O)cn(C5CC5)c4c3OC(F)F)ccc21 [Garenoxacin mesylate hydrate] | > 45.8 | > 45.8
COc1c(N2CCNC(C)C2)c(F)cc2c(=O)c(C(=O)O)cn(C3CC3)c12 (centres undefined) [Gatifloxacin] | > 45.8 | > 45.8
CC(C)=CCC/C(C)=C/CC/C(C)=C/CCC(=O)OC/C=C(\C)CCC=C(C)C [Gefarnate] | > 45.8 | > 45.8
Cc1ccc(C)c(OCCCC(C)(C)C(=O)O)c1 [Gemfibrozil] | > 45.8 | > 45.8
CO/N=C1\CN(c2nc3c(cc2F)c(=O)c(C(=O)O)cn3C2CC2)CC1CN (centres undefined) [Gemifloxacin mesylate] | > 45.8 | > 45.8
CC(C)=CCC/C(C)=C/CO [Geraniol] | > 45.8 | > 45.8
C#C[C@]1(O)C=C[C@H]2[C@@H]3CCC4=CC(=O)CC[C@@H]4[C@H]3CC[C@@]21CC [Gestodene] | > 45.8 | > 45.8
CC(=O)[C@@]1(O)CC[C@H]2[C@@H]3CCC4=CC(=O)CC[C@@H]4[C@H]3CC[C@@]21C [Gestonorone] | > 45.8 | > 45.8
Oc1cc(O)c(Cl)cn1 [Gimeracil] | > 45.8 | > 45.8
O=C(OCC(O)CO)c1ccccc1Nc1ccnc2cc(Cl)ccc12 (centres undefined) [Glafenine hydrochloride] | > 45.8 | > 45.8
Cc1ccc(S(=O)(=O)NC(=O)NN2CC3CCCC3C2)cc1 (centres undefined) [Gliclazide] | > 45.8 | > 45.8
CCC1=C(C)CN(C(=O)NCCc2ccc(S(=O)(=O)NC(=O)N[C@H]3CC[C@H](C)CC3)cc2)C1=O [Glimepiride] | > 45.8 | > 45.8
Cc1cnc(C(=O)NCCc2ccc(S(=O)(=O)NC(=O)NC3CCCCC3)cc2)cn1 [Glipizide] | > 45.8 | > 45.8
COc1ccc2c(c1)C(=O)N(CCc1ccc(S(=O)(=O)NC(=O)NC3CCCCC3)cc1)C(=O)C2(C)C [Gliquidone] | > 45.8 | > 45.8
O=C1O[C@H](CO)[C@@H](O)[C@H](O)[C@H]1O [Gluconolactone] | > 45.8 | > 45.8
N[C@H]1C(O)O[C@H](CO)[C@@H](O)[C@@H]1O (some centres undefined) [Glucosamine hydrochloride] | > 45.8 | > 45.8
NC(=O)[C@H]1O[C@@H](O)[C@H](O)[C@@H](O)[C@@H]1O [Glucuronamide] | > 45.8 | > 45.8
O=CCCCC=O [Glutaraldehyde] | > 45.8 | > 45.8

SMILES | IC50 cell viability (ICRF193 0 nM) [µM] | IC50 cell viability (ICRF193 200 nM) [µM]
COc1ccc(Cl)cc1C(=O)NCCc1ccc(S(=O)(=O)NC(=O)NC2CCCCC2)cc1 [Glybenclamide] | > 45.8 | > 45.8
CC(C)(C)c1nnc(NS(=O)(=O)c2ccccc2)s1 [Glybuzole] | > 45.8 | > 45.8
Nc1ccccc1C(=O)OCC(O)CO (centres undefined) [Glyceryl 1-(2-aminobenzoate)] | > 45.8 | > 45.8
O=C(NN1CCCC1)NS(=O)(=O)c1ccc(Cl)cc1 [Glyclopyramide] | > 45.8 | > 45.8
C[N+]1(C)CCC(OC(=O)C(O)(c2ccccc2)C2CCCC2)C1 (centres undefined) [Glycopyrrolate bromide] | > 45.8 | > 45.8
COCCOc1cnc(NS(=O)(=O)c2ccccc2)nc1 [Glymidine sodium] | > 45.8 | > 45.8
CC(C)C[C@H](NC(=O)[C@@H](COC(C)(C)C)NC(=O)[C@H](Cc1ccc(O)cc1)NC(=O)[C@H](CO)NC(=O)[C@H](Cc1c[nH]c2ccccc12)NC(=O)[C@H](Cc1cnc[nH]1)NC(=O)[C@@H]1CCC(=O)N1)C(=O)N[C@@H](CCCNC(=N)N)C(=O)N1CCC[C@H]1C(=O)NNC(N)=O [Goserelin (acetate)] | > 45.8 | > 45.8
CN1C2CCCC1CC(NC(=O)c1nn(C)c3ccccc13)C2 (centres undefined) [Granisetron (AB-1001)] | > 45.8 | > 45.8
Cc1c(F)c(N2CCNC(C)C2)cc2c1c(=O)c(C(=O)O)cn2C1CC1 (centres undefined) [Grepafloxacin hydrochloride] | > 45.8 | > 45.8
COc1ccccc1OC(=O)Oc1ccccc1OC [Guaiacol carbonate] | > 45.8 | > 45.8
COc1ccccc1O [Guaiacol] | > 45.8 | > 45.8
Cc1ccc(C(C)C)cc2c(C)ccc1-2 [Guaiazulene] | > 45.8 | > 45.8
COc1ccccc1OCC(O)CO (centres undefined) [Guaifenesin] | > 45.8 | > 45.8
N=C(N)NCC1COC2(CCCCC2)O1 (centres undefined) [Guanadrel sulfate] | > 45.8 | > 45.8
N=C(N)NCCN1CCCCCCC1 [Guanethidine sulfate] | > 45.8 | > 45.8
N=C(N)NC(=O)Cc1c(Cl)cccc1Cl [Guanfacine hydrochloride] | > 45.8 | > 45.8
N=C(N)NCCCCCCC(=O)NC(O)C(=O)NCCCCNCCCN (centres undefined) [Gusperimus trihydrochloride] | > 45.8 | > 45.8
CCCCCCCCCC(=O)OC1(c2ccc(Cl)cc2)CCN(CCCC(=O)c2ccc(F)cc2)CC1 [HALOPERIDOL DECANOATE] | > 45.8 | > 45.8
FC(F)(F)C(Cl)Br (centres undefined) [HALOTHANE] | > 45.8 | > 45.8
CC1(C)S[C@@H]2[C@H](N3C(=O)[C@@H](c4ccccc4)NC3(C)C)C(=O)N2[C@H]1C(=O)O [HETACILLIN POTASSIUM] | > 45.8 | > 45.8
C[N+]1(C)[C@@H]2CC[C@H]1C[C@@H](OC(=O)C(O)c1ccccc1)C2 (some centres undefined) [HOMATROPINE METHYLBROMIDE] | > 45.8 | > 45.8

SMILES | IC50 cell viability (ICRF193 0 nM) [µM] | IC50 cell viability (ICRF193 200 nM) [µM]
CCC(=O)O[C@]1(C(=O)COC(C)=O)CC[C@H]2[C@@H]3CCC4=CC(=O)CC[C@]4(C)[C@H]3[C@@H](O)C[C@@]21C [HYDROCORTISONE ACEPONATE] | > 45.8 | > 45.8
CC(N)Cc1ccc(O)cc1 (centres undefined) [HYDROXYAMPHETAMINE HYDROBROMIDE] | > 45.8 | > 45.8
CN1[C@@H]2CC[C@H]1C[C@@H](OC(=O)[C@H](CO)c1ccccc1)C2 [HYOSCYAMINE] | > 45.8 | > 45.8
CC1(C)O[C@@H]2C[C@H]3[C@@H]4CCC5=CC(=O)CC[C@]5(C)[C@@]4(F)[C@@H](O)C[C@]3(C)[C@]2(C(=O)CCl)O1 [Halcinonide] | > 45.8 | > 45.8
CCC(=O)O[C@]1(C(=O)CCl)[C@@H](C)C[C@H]2[C@@H]3C[C@H](F)C4=CC(=O)C=C[C@]4(C)[C@@]3(F)[C@@H](O)C[C@@]21C [Halobetasol Propionate] | > 45.8 | > 45.8
O=C(CC1NCCCC1O)Cn1cnc2cc(Br)c(Cl)cc2c1=O (centres undefined) [Halofuginone hydrochloride] | > 45.8 | > 45.8
O=C(CCCN1CCC(O)(c2ccc(Cl)cc2)CC1)c1ccc(F)cc1 [Haloperidol] | > 45.8 | > 45.8
Cc1c(Cl)c(=O)oc2cc(OP(=O)(OCCCl)OCCCl)ccc12 [Haloxon] | > 45.8 | > 45.8
CCCCCCCCCCCCCCCC(=O)OC(C)C [Hexadecanoic acid, 1-methylethyl ester] | > 45.8 | > 45.8
C[N+](C)(CCCCCC[N+](C)(C)C1c2ccccc2-c2ccccc21)C1c2ccccc2-c2ccccc21 [Hexafluorenium dibromide] | > 45.8 | > 45.8
O=C(O)CCCCC(=O)O [Hexanedioic acid] | > 45.8 | > 45.8
CCCCC(CC)CN1CN(CC(CC)CCCC)CC(C)(N)C1 (centres undefined) [Hexetidine] | > 45.8 | > 45.8
CN1C(=O)NC(=O)C(C)(C2=CCCCC2)C1=O (centres undefined) [Hexobarbital] | > 45.8 | > 45.8
C[N+]1(C)CCN(CC(O)(c2ccccc2)C2CCCCC2)CC1 (centres undefined) [Hexocyclium] | > 45.8 | > 45.8
Oc1ccc(C(O)CNCCCCCCNCC(O)c2ccc(O)c(O)c2)cc1O (centres undefined) [Hexoprenaline sulfate] | > 45.8 | > 45.8
CC(CNC1CCCCC1)OC(=O)c1ccccc1 (centres undefined) [Hexylcaine hydrochloride] | > 45.8 | > 45.8
O=C(O)CNC(=O)c1ccccc1 [Hippuric acid] | > 45.8 | > 45.8
NCCc1c[nH]cn1 [Histamine dihydrochloride] | > 45.8 | > 45.8
C/C=C1\[C@H]2C=C(C)C[C@]1(N)c1ccc(=O)[nH]c1C2 [Huperzine A] | > 45.8 | > 45.8
NS(=O)(=O)c1cc2c(cc1Cl)NCNS2(=O)=O [Hydrochlorothiazide] | > 45.8 | > 45.8
